# Data published in the NIST ThermoML archive (doi:10.1021/acs.jced.8b00931).
# Numbers after ± are expanded uncertainties.
# How the values were obtained:
# [1] = Molar enthalpy of transition or fusion; settings: Crystal; DSC
# [2] = Crystal; DSC
structure (smiles),measurement,setting,value
Nc1cc([N+](=O)[O-])ccc1Cl [2-chloro-5-nitroaniline],Molar enthalpy of transition or fusion,[1],6.46 ± 0.232 kcal/mol
same,Triple point temperature,[2],393.39 ± 1.2 K
